Assay results published in patent US5643784A, “Indan derivatives” (H, Lundbeck A/S, priority 1990, dated 1997).

Key:
5-HT2 receptors = biological target: T1, 5-HT2 receptors (Rattus norvegicus, UniProt P14842); assay: Inhibition of 3H-ketanserin binding to 5-HT2 receptors in rat cortex in vitro; conditions: for IC50: 3H-Ketanserin 0.5 nM, rat cortex, 37° C., 30 min, read-out: Receptor Binding, IC50 5-HT2 3H-Ket
T1 construct: cortical tissue is dissected and weighed; from tissue; host or cells: cortex of male Wistar rats, crude membranes
T1 sequence (P14842 whole entry): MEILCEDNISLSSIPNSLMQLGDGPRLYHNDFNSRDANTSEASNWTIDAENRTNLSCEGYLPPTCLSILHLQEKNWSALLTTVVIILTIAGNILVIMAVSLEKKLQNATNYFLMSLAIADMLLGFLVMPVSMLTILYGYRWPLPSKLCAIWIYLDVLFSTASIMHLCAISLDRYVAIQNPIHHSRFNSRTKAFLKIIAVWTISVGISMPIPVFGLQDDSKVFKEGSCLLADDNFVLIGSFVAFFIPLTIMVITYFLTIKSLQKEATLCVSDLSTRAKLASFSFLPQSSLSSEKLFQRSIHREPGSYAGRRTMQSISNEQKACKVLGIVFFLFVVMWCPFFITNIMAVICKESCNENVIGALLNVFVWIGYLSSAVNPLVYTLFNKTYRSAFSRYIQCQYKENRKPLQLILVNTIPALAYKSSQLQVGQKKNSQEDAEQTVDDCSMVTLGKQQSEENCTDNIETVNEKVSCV
Protocol: Method in Hyttel, Pharmacology & Toxicology, 61, 126-129, 1987.
Male Wistar (Mol:Wist) rats (125-250 g) are sacrificed and cortical tissue is dissected and weighed. The tissue is homogenized (Ultra Turrax, 10 sec.) in 10 ml of ice-cold 50 mM tris buffer pH 7.7 (at 25° C.). The centrifuge glassware used in this step has been rinsed by sonication for 10 min. in ethanol. The homogenate is centrifuged twice at 20,000 g for 10 min. at 4° C. with rehomogenization of the pellet in 10 ml ice-cold buffer. The final pellet is homogenized in 500 vol (w/v) ice-cold buffer.
Incubation tubes kept on ice in triplicate receive 100 μl of drug solution in water (or water for total binding) and 2000 μl of tissue suspension (final tissue content corresponds to 4 mg original tissue). […] After incubation for 30 min. the samples are filtered under vacuum (0-50 mBar) through Whatman GF/F filters (25 mm). The tubes are rinsed with 5 ml ice-cold buffer which are then poured on the filters. Thereafter, the filters are washed with 2×5 ml of buffer. The filters are placed in counting vials and 4 ml of appropriate scintillation fluid (e.g. Picofluor™15) are added. After shaking for 1 h and storage 2 hrs in the dark the content of radioactivity is determined by liquid scintillation counting. Specific binding is obtained by subtracting the nonspecific binding in the presence of 1 μM mianserin.
(§1) For determination of the inhibition of binding five concentrations of drugs covering 3 decades are used.
The IC50 value is determined as the concentration at which the binding is 50% of the total binding in control samples minus the nonspecific binding in the presence of 1 μM mianserin.

dopamine D-2 receptors = biological target: T2, dopamine D-2 receptors (Rattus norvegicus, UniProt P61169); assay: Inhibition of 3H-spiperone binding to dopamine D-2 receptors in rat corpus striatum in vitro; conditions: 3H-spiperone 0.5 nM, rat corpus striatum, 37° C., 10 min; read-out: Receptor Binding; IC50 DA D-2 3H-Spi
T2 construct: striatal tissue is dissected and weighed; from tissue; host or cells: corpus striatum of male Wistar rats, crude membranes
T2 sequence (P61169 whole entry): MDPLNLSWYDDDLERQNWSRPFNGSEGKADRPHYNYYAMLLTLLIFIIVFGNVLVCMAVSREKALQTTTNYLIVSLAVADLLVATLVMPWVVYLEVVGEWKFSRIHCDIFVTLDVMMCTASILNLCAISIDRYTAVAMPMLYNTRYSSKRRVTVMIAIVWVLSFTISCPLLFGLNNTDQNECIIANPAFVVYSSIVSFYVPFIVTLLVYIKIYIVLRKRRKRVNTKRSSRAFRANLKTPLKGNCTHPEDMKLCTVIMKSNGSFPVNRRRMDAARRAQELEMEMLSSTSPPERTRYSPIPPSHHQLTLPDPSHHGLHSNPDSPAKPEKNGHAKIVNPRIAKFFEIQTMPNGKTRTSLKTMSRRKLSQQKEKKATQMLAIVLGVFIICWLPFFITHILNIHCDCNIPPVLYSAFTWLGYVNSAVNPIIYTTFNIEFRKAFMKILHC
Protocol: INHIBITION OF ^3 H-SPIPERONE BINDING TO DOPAMINE D-2 RECEPTORS IN RAT CORPUS STRIATUM IN VITRO
By this method the inhibition by drugs of the binding of ^3 H-spiperone (0.5 nM) to dopamine D-2 receptors in membranes from rat corpus striatum is determined in vitro.
(§2) Male Wistar (Mol:Wistar) rats (125-250 g) are sacrificed and striatal tissue is dissected and weighed. The tissue is homogenized (Ultra Turrax, 10 sec.) in 10 ml of ice-cold 50 mM K-phosphate buffer pH 7.4 (at 25° C.). The homogenate is centrifuged twice at 20,000 g for 10 min. at 4° C. with rehomogenization of the pellet in 10 ml ice-cold buffer. The final pellet is homogenized in 1300 vol (w/v) ice-cold buffer.
Incubation tubes kept on ice in triplicate receive 100 μl of drug solution in water (or water for total binding) and 4000 μl of tissue suspension (final tissue content corresponds to 3.08 mg original tissue). The binding experimental is initiated by addition of 100 μl of ^3 H-spiperone (final concentration 0.5 nM) and by placing the tubes in a 37° C. water bath. After incubation for 10 min. the samples are filtered under vacuum (0-50 mBar) through Whatman GF/F filters (25 mm). The tubes are rinsed with 5 ml ice-cold buffer which are then poured on the filters. Thereafter, the filters are washed with 2×5 ml of buffer. The filters are placed in counting vials and 4 ml of appropriate scintillation fluid (e.g. Picofluor ™15) are added. After shaking for 1 h and storage 2 hrs in the dark the content of radioactivity is determined by liquid scintillation counting. Specific binding is obtained by subtracting the nonspecific binding in the presence of 10 μM of 6,7-ADTN.
as §1
^3 H-Spiperone=[phenyl-4-^3 H]-spiperone from Amersham International plc. England, specific activity 15-25 Ci/mmol.

α1 adrenoceptors = assay: Inhibition of 3H-prazosin binding to α1 adrenoceptors in rat brain in vitro; conditions: for IC50: 3H-Prazosin 0.25 nM, rat brain, 25° C., 20 min, read-out: Receptor Binding, IC50 α1 3H-Praz
Protocol: INHIBITION OF ^3 H-PRAZOSIN BINDING TO α1 ADRENOCEPTORS IN RAT BRAIN IN VITRO
Method and results in Hyttel & Larsen, J. Neurochem, 44, 1615-1622, 1985; Skarsfeldt & Hyttel, Eur. J. Pharmacol. 125, 323-340, 1986.
as §2, with “(Mol:Wist)” for “(Mol:Wistar)”, “(125-200” for “(125-250”, “brain” for “striatal”, “[…] Tris” for “mM K-phosphate”, “7,7” for “7.4”, “400” for “1300”
Incubation tubes kept on ice in triplicate receive 100 μl of drug solution in water (or water for total binding) and 4000μl of tissue suspension (final tissue content corresponds to 10 mg original tissue). The binding experiment is initiated by addition of 100 μl of ^3 H-Prazosin (final concentration 0.25 nM) and by placing the tubes in a 25° C. water bath. After incubation for 20 min. the samples are filtered under vacuum (0-50 mBar) through Whatman GF/F filters (25 mm). The tubes are rinsed with 5 ml ice-cold buffer which then are poured on the filters. Thereafter, the filters are washed with 5 ml of buffer. The filters are placed in counting vials and 4 ml of appropriate scintillation fluid (e.g. Picofluor™15) are added. After shaking for 1 h and storage 2 hrs in the dark the content of radioactivity is determined by liquid scintillation counting. Specific binding is obtained by subtracting the nonspecific binding in the presence of 1 μM of Prazosin.
as §1
The measured cpm are plotted against drug concentration on semilogarithmic paper and the best fitting S-shaped curve is drawn. The IC50 value is determined as the concentration at which the binding is 50% of the total binding in control samples minus the nonspecific binding in the presence of 1 μM of Prazosin.
^3 H-Prazosin=[furoyl-5-^3 H]-Prazosin from New England Nuclear, specific activity approximately 20 Ci/mmol.

| Compound | IC50 (5-HT2 receptors) [nM] | IC50 (dopamine D-2 receptors) [nM] | IC50 (α1 adrenoceptors) [nM] | affinity to 5-HT2 receptors (in words) (5-HT2 receptors) | affinity to α1 adrenoceptors (in words) (α1 adrenoceptors) |
| --- | --- | --- | --- | --- | --- |
| O=C1N(CCO)CCN1CCN1CCN([C@@H]2C[C@@H](c3ccc(F)cc3)c3cc(Cl)ccc32)CC1 (relative stereo) [Compound 37, Trans-1-[2-[4-[5-chloro-3-(4-fluorophenyl)-2,3-dihydro-1H-inden-1-yl]piperazin-1-yl]-ethyl]-3-(2-hydroxyethyl)-2-imidazolidinone] | 6.1 | 320 | 710 |  |  |
| O=C1NCCN1CCN1CCN([C@@H]2C[C@@H](c3ccc(F)cc3)c3ccc(C(F)(F)F)cc32)CC1 (relative stereo) [Compound 39, reference compound] |  | 21 | 8.3 |  |  |
| CC(C)N1CCN(CCN2CCN([C@@H]3C[C@@H](c4ccc(F)cc4)c4cc(Br)ccc43)CC2)C1=O (relative stereo) [Compound 24, Trans-1-[2-[4-[5-bromo-3-(4-fluorophenyl)-2,3-dihydro-1H-inden-1-yl]piperazin-1-yl]ethyl]-3-isopropyl-2-imidazolidinone] | 6.4 | 240 | 270 |  |  |
| CC(C)N1CCN(CCN2CCN([C@@H]3C[C@@H](c4ccc(F)cc4)c4cc(Cl)ccc43)CC2)C1=O (relative stereo) [Compound 11, Trans-1-[2-[4-[5-chloro-3-(4-fluorophenyl)-2,3-dihydro-1H-inden-1-yl]piperazin-1-yl]-ethyl]-3-isopropyl-2-imidazolidinone] | 3.9 | 280 | 260 |  |  |
| CSc1ccc2c(c1)[C@H](c1ccc(F)cc1)C[C@H]2N1CCN(CCN2CCNC2=O)CC1 (relative stereo) [Compound 22, Trans-1-[2-[4-[3-(4-fluorophenyl)-5-(methylthio)-2,3-dihydro-1H-inden-1-yl]piperazin-1-yl]ethyl]-2-imidazolidinone] | 3.5 | 1100 | 240 |  |  |
| O=C1N(CCN2CCN([C@@H]3C[C@@H](c4ccc(F)cc4)c4cc(Cl)ccc43)CC2)CCN1c1ccccc1 (relative stereo) [Compound 17, Trans-1-[2-[4-[5-chloro-3-(4-fluorophenyl)-2,3-dihydro-1H-inden-1-yl]piperazin-1-yl]ethyl]-3-phenyl-2-imidazolidinone] | 44 | 300 | 310 |  |  |
| CC1(C)CNC(=O)N(CCN2CCN([C@@H]3C[C@@H](c4ccc(F)cc4)c4cc(Cl)ccc43)CC2)C1 (single isomer, unassigned) [Compound 35, (+)-Trans-1-[2-[4-[5-chloro-3-(4-fluorophenyl)-2,3-dihydro-1H-inden-1-yl]piperazin-1-yl]ethyl]-5,5-dimethyl-tetrahydro-2(1H)-pyrimidinone] | 4.8 | 150 | 120 |  |  |
| Fc1ccc([C@@H]2C[C@@H](N3CCNCC3)c3ccc(Cl)cc32)cc1 (relative stereo) [Compound 10, Trans-1-[5-chloro-3-(4-fluorophenyl)-2,3-dihydro-1H-inden-1-yl]piperazine] | 11 | 2500 | 840 |  |  |
| OCCN1CCN([C@@H]2C[C@@H](c3ccc(F)cc3)c3cc(Cl)ccc32)CC1 (relative stereo) [Compound 3, Trans-4-[5-chloro-3-(4-fluorophenyl)-2,3-dihydro-1H-inden-1-yl)-1-piperazine-ethanol] | 25 | 2200 | 230 |  |  |
| OCCN1CCN([C@@H]2C[C@@H](c3ccc(F)cc3)c3cc(C(F)(F)F)ccc32)CC1 (relative stereo) [Compound 5, Trans-4-[3-(4-fluorophenyl)-5-(trifluoromethyl)-2,3-dihydro-1H-inden-1-yl]-1-piperazineethanol] | 8.9 | 1300 | 380 |  |  |
| Cc1ccc([C@@H]2C[C@@H](N3CCN(CCN4CCN(C(C)C)C4=O)CC3)c3ccc(Cl)cc32)cc1 (relative stereo) [Compound 26, Trans-1-[2-[4-[5-chloro-3-(4-methylphenyl)-2,3-dihydro-1H-inden-1-yl]piperazin-1-yl]ethyl]-3-isopropyl-2-imidazolidinone] | 11 | 450 | 60 |  |  |
| O=C1NCCCN1CCN1CCN([C@@H]2C[C@@H](c3ccc(F)cc3)c3cc(F)ccc32)CC1 (single isomer, unassigned) [(-)-33, (-)-Trans-1-[2-[4-[5-fluoro-3-(4-fluorophenyl)-2,3-dihydro-1H-inden-1-yl]piperazin-1-yl]ethyl]-tetrahydro-2(1H)-pyrimidinone] | 57 | 4600 |  |  |  |
| CSc1ccc2c(c1)[C@H](c1ccc(F)cc1)C[C@H]2N1CCN(CCN2CCN(C(C)C)C2=O)CC1 (relative stereo) [Compound 23, Trans-1-[2-[4-[3-(4-fluorophenyl)-5-(methylthio)-2,3-dihydro-1H-inden-1-yl]piperazin-1-yl]ethyl]-3-isopropyl-2-imidazolidinone] | 4 | 720 | 250 |  |  |
| O=C1NCCN1CCN1CCN([C@@H]2C[C@@H](c3ccc(F)cc3)c3ccccc32)CC1 [Irindalon, reference compound] | 3.4 | 400 | 16 | high affinity to 5-HT2 receptors | significant affinity to oh adrenoceptors |
| Fc1ccc([C@@H]2C[C@@H](N3CCN(CCN4CCCC4=S)CC3)c3ccc(Cl)cc32)cc1 (relative stereo) [Compound 38] | 5.3 | 290 | 260 |  |  |
| Fc1ccc([C@H]2C[C@H](N3CCNCC3)c3ccc(Cl)cc32)cc1 (single isomer, unassigned) [(+)-10] | 3300 | 28000 |  |  |  |
| O=C1NCCN1CCN1CCN([C@@H]2C[C@@H](c3ccc(F)cc3)c3ccc(Cl)cc32)CC1 (relative stereo) [Compound 41, reference compound] |  | 17 | 3.1 |  |  |
